Measured values from patent US9708336B2, “Metallo-beta-lactamase inhibitors” (priority 2014, dated 2017).
pIC50: −log10 of the molar value. Like-named read-outs stand apart in the source and are kept apart here.

Assays:
[1] = target: NDM-1 (Klebsiella pneumoniae, UniProt C7C422); experiment: biochemical; format: biochemical; settings: read-out: NDM-1 IC50
[2] = target: VIM-1 (Pseudomonas aeruginosa (strain ATCC 15692 / DSM 22644 / CIP 104116 / JCM 14847 / LMG 12228 / 1C / PRS 101 / PAO1), UniProt A0A0F7KYQ8); experiment: Enzyme activity: determination of IC50, fluorescence assay with CCF2-FA substrate (VIM-1); format: biochemical
[3] = target: IMP-1 (Serratia marcescens, UniProt P52699); experiment: biochemical; format: biochemical; settings: read-out: IMP-1 IC50
[4] = system: Serratia marcescens expressing IMP-1 (CL5741); experiment: Antibiotic potentiation activity: synergistic concentration (MITC95) with imipenem, OD600 growth; format: cell-based; settings: for Serratia marcescens expressing IMP-1 (CL5741) MITC95: concentration giving 95% inhibition of bacterial growth
In short: (§1)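 Growth after 22–24 h at 35 °C is measured spectrophotometrically for bacteria incubated with compound plus imipenem (4 μg/ml in-well, or 1 μg/ml). Cells come from overnight agar colonies resuspended in saline and diluted 1:100 in 1.1× CAMHB.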

[5] = system: Klebsiella pneumoniae expressing VIM-1 (IHMA599644); experiment: as above; format: cell-based; settings: for Klebsiella pneumoniae expressing VIM-1 (IHMA 599644) MITC95: concentration giving 95% inhibition of bacterial growth
In short: as §1

[6] = system: Escherichia coli expressing NDM-1 (CLB30016); experiment: as above; format: cell-based; settings: for Escherichia coli expressing NDM-1 (CLB 30016) MITC95: concentration giving 95% inhibition of bacterial growth
In short: as §1

[7] = fluorescence assay with CCF2-FA substrate
[8] = fluorescence assay with CCF2-FA substrate, read-out: VIM-1 IC50
[9] = CL5741 (IMP-1), 95% inhibition of bacterial growth
[10] = IHMA599644 (VIM-1), 95% inhibition of bacterial growth
[11] = CLB30016 (NDM-1), 95% inhibition of bacterial growth
[12] = NDM-1 enzyme, CCF2-FA fluorescence assay
[13] = IMP-1 enzyme, CCF2-FA fluorescence assay
[14] = Serratia marcescens expressing IMP-1 (CL5741), 95% growth inhibition
[15] = Klebsiella pneumoniae expressing VIM-1 (IHMA599644), 95% growth inhibition
[16] = Escherichia coli expressing NDM-1 (CLB30016), 95% growth inhibition
[17] = NDM-1 enzyme, CCF2-FA substrate
[18] = VIM-1 enzyme, CCF2-FA substrate, read-out: VIM-1 IC50
[19] = IMP-1 enzyme, CCF2-FA substrate
[20] = Serratia marcescens CL5741 (IMP-1), 95% growth inhibition
[21] = Klebsiella pneumoniae IHMA599644 (VIM-1), 95% growth inhibition
[22] = (CLB30016, NDM-1), 95% growth inhibition
[23] = VIM-1 enzyme, CCF2-FA fluorescence assay, read-out: VIM-1 IC50

NDM-1, sequence (C7C422 whole entry, looked up, species assumed): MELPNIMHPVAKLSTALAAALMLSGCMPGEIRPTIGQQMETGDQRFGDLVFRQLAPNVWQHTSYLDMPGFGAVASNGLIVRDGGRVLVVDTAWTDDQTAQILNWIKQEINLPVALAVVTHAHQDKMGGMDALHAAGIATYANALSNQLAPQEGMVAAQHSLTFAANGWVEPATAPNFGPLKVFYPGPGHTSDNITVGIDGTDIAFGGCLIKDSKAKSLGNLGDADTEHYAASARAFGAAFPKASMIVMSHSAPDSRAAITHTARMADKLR
IMP-1, sequence (P52699 whole entry, looked up): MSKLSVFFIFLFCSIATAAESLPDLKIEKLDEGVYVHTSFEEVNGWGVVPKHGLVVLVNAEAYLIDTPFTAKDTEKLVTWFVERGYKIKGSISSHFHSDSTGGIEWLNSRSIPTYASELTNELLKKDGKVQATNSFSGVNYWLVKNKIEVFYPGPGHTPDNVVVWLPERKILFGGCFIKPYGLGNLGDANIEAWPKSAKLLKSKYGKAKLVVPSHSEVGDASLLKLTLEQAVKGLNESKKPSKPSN

NC1CCC(c2ccc(CCC3CCNCC3)c(S(N)(=O)=O)c2-c2nn[nH]n2)CC1 (stereo not drawn) [Example 838, 3-(4-aminocyclohexyl)-6-[2-(4-piperidyl)ethyl]-2-(2H-tetrazol-5-yl)benzenesulfonamide]
pIC50 [1, 7]: 7.17
pIC50 [2, 8]: 7.21
pIC50 [3, 7]: 5.77
Serratia marcescens MITC95 [4, 9]: 12.5 µM
Klebsiella pneumoniae MITC95 [5, 10]: 6.25 µM
Escherichia coli MITC95 [6, 11]: 3.125 µM

CN1CCC(NCc2ccc(-c3cccc(S(N)(=O)=O)c3-c3nnn[nH]3)cc2)C1=O (stereo not drawn) [Example 349, 4′-{[(1-methyl-2-oxopyrrolidin-3-yl)amino]methyl}-2-(1H-tetrazol-5-yl)biphenyl-3-sulfonamide]
pIC50 [1, 12]: 8.36
pIC50 ([2]; VIM-1 IC50, VIM-1 enzyme, CCF2-FA fluorescence assay): 6.20
pIC50 [3, 13]: 7.21
Serratia marcescens MITC95 [4, 14]: 2.344 µM
Klebsiella pneumoniae MITC95 [5, 15]: >200 µM
Escherichia coli MITC95 [6, 16]: 6.25 µM

N#Cc1ccc2ncc(-c3cccc(S(N)(=O)=O)c3-c3nnn[nH]3)n2c1 [Example 648, 3-(6-cyanoimidazo[1,2-a]pyridin-3-yl)-2-(1H-tetrazol-5-yl)benzenesulfonamide]
pIC50 [1, 17]: 8.29
pIC50 [2, 18]: 7.82
pIC50 [3, 19]: 7.02
Serratia marcescens MITC95 [4, 20]: 6.25 µM
Klebsiella pneumoniae MITC95 [5, 21]: 12.5 µM
Escherichia coli MITC95 [6, 22]: 1.563 µM

NS(=O)(=O)c1cccc(-c2cnn(CCN3CCOCC3)c2)c1-c1nnn[nH]1 [Example 126, 3-(1-(2-morpholinoethyl)-1H-pyrazol-4-yl)-2-(1H-tetrazol-5-yl)benzenesulfonamide]
pIC50 [1, 7]: 6.78
pIC50 [2, 8]: 4.84
pIC50 [3, 7]: 6.06
Serratia marcescens expressing IMP-1 (CL5741) MITC95 [4]: 25 µM
Klebsiella pneumoniae expressing VIM-1 (IHMA 599644) MITC95 [5]: >200 µM
Escherichia coli expressing NDM-1 (CLB 30016) MITC95 [6]: 6.25 µM

Nc1nc2c(-c3ccc(CC4CCC4)c(S(N)(=O)=O)c3-c3nn[nH]n3)cccc2s1 [Example 535, 3-(2-Aminobenzo[d]thiazol-4-yl)-6-(cyclobutylmethyl)-2-(2H-tetrazol-5-yl)benzenesulfonamide]
pIC50 [1, 17]: 9.07
pIC50 [2, 18]: 8.57
pIC50 [3, 19]: 8.16
Serratia marcescens MITC95 [4, 20]: 25 µM
Klebsiella pneumoniae MITC95 [5, 21]: 50 µM
Escherichia coli MITC95 [6, 22]: 6.25 µM

NS(=O)(=O)c1c(C(F)(F)F)ccc(-c2ccc(C3CN(C4CCNCC4)C3)cc2)c1-c1nnn[nH]1 [Example 802, 4′-(1-piperidin-4-ylazetidin-3-yl)-2-(1H-tetrazol-5-yl)-4-(trifluoromethyl)biphenyl-3-sulfonamide]
pIC50 [1, 7]: 8.49
pIC50 [2, 8]: 7.76
pIC50 [3, 7]: 8.37
Serratia marcescens MITC95 [4, 9]: 6.25 µM
Klebsiella pneumoniae MITC95 [5, 10]: 100 µM
Escherichia coli MITC95 [6, 11]: 6.25 µM

CS(=O)(=O)Nc1ccc(-c2ccc(Br)c(S(N)(=O)=O)c2-c2nn[nH]n2)cc1 [Example 270, 4-bromo-4′-(methylsulfonamido)-2-(2H-tetrazol-5-yl)-[1,1′-biphenyl]-3-sulfonamide]
pIC50 [1, 12]: 8.59
pIC50 [2, 23]: 8.77
pIC50 [3, 13]: 8.31
Serratia marcescens MITC95 [4, 14]: 0.3906 µM
Klebsiella pneumoniae MITC95 [5, 15]: 6.25 µM
Escherichia coli MITC95 [6, 16]: 1.563 µM

NC1CC(N2CCC(c3ccc(-c4ccc(C(F)(F)F)c(S(N)(=O)=O)c4-c4nnn[nH]4)cc3)CC2)C1 (stereo not drawn) [Example 790, 4′-[1-(3-aminocyclobutyl)piperidin-4-yl]-2-(1H-tetrazol-5-yl)-4-(trifluoromethyl)biphenyl-3-sulfonamide]
pIC50 [1, 7]: 8.45
pIC50 [2, 8]: 8.14
pIC50 [3, 7]: 9.06
Serratia marcescens MITC95 [4, 9]: 3.125 µM
Klebsiella pneumoniae MITC95 [5, 10]: 12.5 µM
Escherichia coli MITC95 [6, 11]: 0.7813 µM

CNCCN1CCC(c2ccc(-c3ccc(C(F)(F)F)c(S(N)(=O)=O)c3-c3nnn[nH]3)cc2)CC1 [Example 674, 4′-{1-[2-(methylamino)ethyl]piperi-din-4-yl}-2-(1H-tetrazol-5-yl)-4-(trifluoromethyl)biphenyl-3-sulfonamide]
pIC50 [1, 17]: 8.18
pIC50 [2, 18]: 7.76
pIC50 [3, 19]: 8.61
Serratia marcescens MITC95 [4, 20]: 6.25 µM
Klebsiella pneumoniae MITC95 [5, 21]: 75 µM
Escherichia coli MITC95 [6, 22]: 3.125 µM

Nc1nc2ccc(-c3cccc(S(N)(=O)=O)c3-c3nn[nH]n3)cc2[nH]1 [Example 429]
pIC50 [1, 12]: 8.59
pIC50 [2, 23]: 7.52
pIC50 [3, 13]: 6.30
Serratia marcescens MITC95 [4, 14]: 6.25 µM
Klebsiella pneumoniae MITC95 [5, 15]: 2.344 µM
Escherichia coli MITC95 [6, 16]: 0.0625 µM

NCc1ccc(-c2ccc(C(F)(F)F)c(S(N)(=O)=O)c2-c2nn[nH]n2)cc1 [Example 439, 4′-(aminomethyl)-2-(2H-tetrazol-5-yl)-4-(trifluoromethyl)-[1,1′-biphenyl]-3-sulfonamide]
pIC50 [1, 12]: 7.93
pIC50 [2, 23]: 8.39
pIC50 [3, 13]: 7.69
Serratia marcescens MITC95 [4, 14]: 0.5859 µM
Klebsiella pneumoniae MITC95 [5, 15]: 1.563 µM
Escherichia coli MITC95 [6, 16]: 0.7813 µM

CC(C1CCN(c2ccnc(S(N)(=O)=O)c2-c2nnn[nH]2)CC1)N1CCOCC1 (stereo not drawn) [Example 223, 4-[4-(1-morpholin-4-ylethyl)piperidin-1-yl]-3-(1H-tetrazol-5-yl)pyridine-2-sulfonamide]
pIC50 [1, 7]: 6.80
pIC50 [2, 8]: 6.23
pIC50 [3, 7]: 5.88
Serratia marcescens expressing IMP-1 (CL5741) MITC95 [4]: 25 µM
Klebsiella pneumoniae expressing VIM-1 (IHMA 599644) MITC95 [5]: 200 µM
Escherichia coli expressing NDM-1 (CLB 30016) MITC95 [6]: 4.688 µM

Cl.Cl.NC1CNCCC1(O)c1ccc(-c2cccc(S(N)(=O)=O)c2-c2nn[nH]n2)cc1 (racemic) [Example 282, 4′-(3-amino-4-hydroxypiperidin-4-yl)-2-(2H-tetrazol-5-yl)-[1,1′-biphenyl]-3-sulfonamide dihydrochloride (trans, racemate)]
pIC50 [1, 12]: 7.67
pIC50 [2, 23]: 6.74
pIC50 [3, 13]: 6.58
Serratia marcescens MITC95 [4, 14]: 1.563 µM
Klebsiella pneumoniae MITC95 [5, 15]: 12.5 µM
Escherichia coli MITC95 [6, 16]: 0.7813 µM

NS(=O)(=O)c1cccc(COc2ccccc2)c1-c1nnn[nH]1 [Example 142, 3-(phenoxymethyl)-2-(1H-tetrazol-5-yl)benzenesulfonamide]
pIC50 [1, 7]: 8.09
pIC50 [2, 8]: 6.38
pIC50 [3, 7]: 7.09
Serratia marcescens expressing IMP-1 (CL5741) MITC95 [4]: 6.25 µM
Klebsiella pneumoniae expressing VIM-1 (IHMA 599644) MITC95 [5]: >200 µM
Escherichia coli expressing NDM-1 (CLB 30016) MITC95 [6]: 1.563 µM

NCCNC1CCN(c2ccc(C(F)(F)F)c(S(N)(=O)=O)c2-c2nnn[nH]2)CC1 [Example 829, 3-[4-(2-aminoethylamino)-1-piperidyl]-2-(1H-tetrazol-5-yl)-6-(trifluoromethyl)benzenesulfonamide]
pIC50 [1, 7]: 7.22
pIC50 [2, 8]: 8.97
pIC50 [3, 7]: 7.03
Serratia marcescens MITC95 [4, 9]: 0.9766 µM
Klebsiella pneumoniae MITC95 [5, 10]: 0.7813 µM
Escherichia coli MITC95 [6, 11]: 0.7813 µM

COc1ccc2cc(-c3cccc(S(N)(=O)=O)c3-c3nnn[nH]3)cnc2n1 [Example 138, 3-(7-methoxy-1,8-naphthyridin-3-yl)-2-(1H-tetrazol-5-yl)benzenesulfonamide]
pIC50 [1, 7]: 8.17
pIC50 [2, 8]: 6.78
pIC50 [3, 7]: 6.45
Serratia marcescens expressing IMP-1 (CL5741) MITC95 [4]: 37.5 µM
Klebsiella pneumoniae expressing VIM-1 (IHMA 599644) MITC95 [5]: >200 µM
Escherichia coli expressing NDM-1 (CLB 30016) MITC95 [6]: 1.563 µM

NS(=O)(=O)c1c(C(F)(F)F)ccc(-c2ccc(C3CCN(C[C@@H]4CCCN4)CC3)cc2)c1-c1nnn[nH]1 [Example 669, 4′-{1-[(2S)-pyrrolidin-2-ylmethyl]piperidin-4-yl}-2-(1H-tetrazol-5-yl)-4-(trifluoromethyl)biphenyl-3-sulfonamide]
pIC50 [1, 17]: 8.41
pIC50 ([2]; VIM-1 IC50, VIM-1 enzyme, CCF2-FA substrate): 8.05
pIC50 [3, 19]: 9.16
Serratia marcescens MITC95 [4, 20]: 2.344 µM
Klebsiella pneumoniae MITC95 [5, 21]: >200 µM
Escherichia coli MITC95 [6, 22]: 2.344 µM

Cc1cccc(Cc2cccc(S(N)(=O)=O)c2-c2nnn[nH]2)c1 [Example 158, 3-(3-methylbenzyl)-2-(1H-tetrazol-5-yl)benzenesulfonamide]
pIC50 [1, 7]: 7.80
pIC50 ([2]; VIM-1 IC50, fluorescence assay with CCF2-FA substrate): 6.45
pIC50 [3, 7]: 6.41
Serratia marcescens expressing IMP-1 (CL5741) MITC95 [4]: 12.5 µM
Klebsiella pneumoniae expressing VIM-1 (IHMA 599644) MITC95 [5]: 200 µM
Escherichia coli expressing NDM-1 (CLB 30016) MITC95 [6]: 3.125 µM

C[N+]1(C)CCC(c2ccc(-c3ccc(C(F)(F)F)c(S(N)(=O)=O)c3-c3nn[nH]n3)cc2)C1 (stereo not drawn) [Example 444, 1,1-dimethyl-3-(3′-sulfamoyl-2′-(2H-tetrazol-5-yl)-4′-(trifluoromethyl)-[1,1′-biphenyl]-4-yl)pyrrolidin-1-ium]
pIC50 [1, 12]: 8.60
pIC50 [2, 23]: 8.87
pIC50 [3, 13]: 8.48
Serratia marcescens MITC95 [4, 14]: 0.3906 µM
Klebsiella pneumoniae MITC95 [5, 15]: 4.688 µM
Escherichia coli MITC95 [6, 16]: 2.344 µM
